# Laboratory results as given in PubChem BioAssay AID1552 (Sanford-Burnham Center for Chemical Genomics, 2009).
# The source made the active and inactive calls. No rule for the calls is given here.
# Biological target: Ubiquitin-conjugating enzyme E2 N (Homo sapiens) (UniProt P61088)
# Experiment: UBE2N binders by NMR, biophysical, purified protein (AID 1552)
# Settings: NMR binding to purified UBE2N
# Ubiquitin-conjugating enzyme E2 N (Homo sapiens), sequence (P61088 whole entry, looked up): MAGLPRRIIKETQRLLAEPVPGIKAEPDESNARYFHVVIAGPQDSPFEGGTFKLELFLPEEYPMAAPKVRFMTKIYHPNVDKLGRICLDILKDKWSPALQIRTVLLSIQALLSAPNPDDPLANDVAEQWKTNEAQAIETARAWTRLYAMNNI
row,SMILES,Kd
1,Cc1ccc(O)c(NC(=O)c2ccco2)c1,> 4 mM (inactive)
2,Cc1cc(C(=O)c2c(C)nn(C)c2Cl)n(C)n1,> 4 mM (inactive)
3,Nc1ccc2nsnc2c1,> 4 mM (inactive)
4,CCN1CCN(c2ncnc3c2nnn3C)CC1,> 4 mM (inactive)
5,NC1=NC(=O)C(CC(=O)Nc2ccccc2F)S1 (centres undefined),> 4 mM (inactive)
6,NC(=O)c1ccccc1NC(=O)C1CC1,> 4 mM (inactive)
7,Cn1c(CSc2nc3ccccc3s2)n[nH]c1=S,> 4 mM (inactive)
8,CCOC(=O)c1[nH]cnc1C(=O)OC(C)C,> 4 mM (inactive)
9,O=C(Nc1ccc2ccccc2c1)c1cnccn1,> 4 mM (inactive)
10,CSc1nsc(SCc2cnc(C)nc2N)n1,> 4 mM (inactive)
11,COCc1cc(C)nc2sc(C(=O)OC)c(N)c12,> 4 mM (inactive)
12,O=C(O)CCC(=O)Nc1ccccc1F,> 4 mM (inactive)
13,Cc1ccc2cc(C(=O)O)ccc2n1,> 4 mM (inactive)
14,COc1ccccc1NC(=O)C1CCC(=O)N1 (centres undefined),> 4 mM (inactive)
15,COc1ccc(/C=C2/NC(=S)NC2=O)cc1,> 4 mM (inactive)
16,COC(=O)Nc1nc2c(C)cccc2s1,> 4 mM (inactive)
17,CS(=O)(=O)N/N=C/c1cccs1,> 4 mM (inactive)
18,N#Cc1c[nH]n2c(=O)cc(Cc3ccccc3)nc12,> 4 mM (inactive)
19,CC1(C)CC(=O)c2cnn(-c3nc4ccccc4[nH]3)c2C1,> 4 mM (inactive)
20,Cc1cc(C(=O)NCc2cccs2)c(C)o1,> 4 mM (inactive)
21,O=C(CN1CCOCC1)Nc1cccc(Br)c1,> 4 mM (inactive)
22,Cc1cccc(NC(=O)NC(N)=O)c1,> 4 mM (inactive)
23,Nc1nncn1C(=O)c1c(Cl)cccc1Cl,> 4 mM (inactive)
24,NC1CN2CCC1CC2 (centres undefined),> 4 mM (inactive)

row,SMILES,Kd
1,O=C(O)CNC(=O)c1ccc([N+](=O)[O-])cc1,> 4 mM (inactive)
2,COC(=O)C1=C(C)N(c2cccc(C(C)=O)c2)C(=O)C1,> 4 mM (inactive)
3,Cn1cnc2c(cnn2-c2ccccc2)c1=O,> 4 mM (inactive)
4,Cc1nnsc1C(=O)N(C)c1ccccc1,> 4 mM (inactive)
5,Cn1ncc(NC(=O)Nc2ccc(F)cc2F)c1C(N)=O,> 4 mM (inactive)
6,NC(=O)c1ccc(N2C(=O)CCC2=O)cc1Cl,> 4 mM (inactive)
7,O=C1CCC(=O)N1c1ccc(F)cc1,> 4 mM (inactive)
8,COc1ccc2c(c1)OC/C(=C\c1ccc(OC)c(O)c1)C2=O,> 4 mM (inactive)
9,NC[C@H]1O[C@H](O[C@H]2[C@H](O)[C@@H](O[C@H]3O[C@H](CO)[C@@H](O)[C@H](N)[C@H]3O)[C@H](N)C[C@@H]2N)[C@H](N)[C@@H](O)[C@@H]1O,> 4 mM (inactive)
10,Cc1ccc2c(c1)CC[C@H]1CC(=O)CC[C@]21C,> 4 mM (inactive)
11,CC1=C2C(O)C(=O)OC3CC4C(C)(C)C(=O)C=C[C@]4(C)C(CC1)[C@]23C (some centres undefined),> 4 mM (inactive)
12,CCc1ccccc1NC(=O)c1cnccn1,> 4 mM (inactive)
13,NC(=O)CSc1nnc2ccc3ccccc3n12,> 4 mM (inactive)
14,Cc1ccc(-c2c(C)n([O-])c3c([n+]2=O)CCCC3)o1,> 4 mM (inactive)
15,Nc1cccc2nsnc12,> 4 mM (inactive)
16,CCN1CCc2c(sc(N)c2C#N)C1,> 4 mM (inactive)
17,O=C(Nc1nncs1)C1(c2ccccc2)CCCC1,> 4 mM (inactive)
18,Nc1cccc(S(=O)(=O)N2CCCCC2)c1,> 4 mM (inactive)
19,CC(=O)Nc1cccc(-c2nnc(-c3ccccc3)o2)c1,> 4 mM (inactive)
20,CC(C)(C)NC(=O)N1CCC(C(N)=O)CC1,> 4 mM (inactive)
21,CN(C)S(=O)(=O)c1ccc(C(=O)NN)cc1,> 4 mM (inactive)
22,Cc1noc(C)c1C(=O)N1CCc2ccccc2C1,> 4 mM (inactive)
23,CCCCCCCCCCCCCc1ccco1,> 4 mM (inactive)
24,C=C[C@H]1CN2CC[C@H]1C[C@@H]2[C@H](O)c1ccnc2ccccc12,> 4 mM (inactive)

row,SMILES,Kd
1,COc1ccc(-c2c(OC)c3c(OC)c4c(cc3oc2=O)OC(C)(C)C=C4)cc1,> 4 mM (inactive)
2,CC(=O)CNc1cc(CNC(C)=O)c(C)cc1C,> 4 mM (inactive)
3,Nc1cc(=O)[nH]c(=S)n1CCc1ccccc1,> 4 mM (inactive)
4,Cc1cc(C(=O)N2CCN(c3ncccn3)CC2)cs1,> 4 mM (inactive)
5,OCc1cc(-c2cccs2)on1,> 4 mM (inactive)
6,c1cnc(N2CCNCC2)nc1,> 4 mM (inactive)
7,Cc1nnc(Nc2ccc(S(N)(=O)=O)cc2)[nH]c1=O,> 4 mM (inactive)
8,CN(C)c1nc(N2CCOCC2)c2cnn(C)c2n1,> 4 mM (inactive)
9,Cc1cccn2cc(CNc3ccccc3)nc12,> 4 mM (inactive)
10,OCc1cccc2c1OCO2,> 4 mM (inactive)
11,Cc1nc2ccccc2c(=O)n1N1C(=O)CCCC1=O,> 4 mM (inactive)
12,CC(CC(=O)NN)C1(O)CCCCC1 (centres undefined),> 4 mM (inactive)
13,O=S(=O)(N1CCCCC1)n1nnc2ccccc21,> 4 mM (inactive)
14,OC12CC3CC(C1)C1(NCCS1)C(C3)C2 (centres undefined),> 4 mM (inactive)
15,CC(C)(C)NC(=O)N1CCC(C(=O)O)CC1,> 4 mM (inactive)
16,Nc1ccc(S(=O)(=O)Nc2ccc(F)cc2F)cc1,> 4 mM (inactive)
17,Cc1nn(-c2ccccc2)nc1CN,> 4 mM (inactive)
18,CC(C)=CCc1c2c(c3occ(-c4ccc(O)cc4)c(=O)c3c1O)C=CC(C)(C)O2,> 4 mM (inactive)
19,COc1ccc2c(=O)c(OC)c(-c3ccccc3)oc2c1,> 4 mM (inactive)
20,COc1ccc(-c2cc(=O)c3ccccc3o2)cc1OC,> 4 mM (inactive)
21,NC(=O)C(=O)Nc1nc(-c2ccccc2)cs1,> 4 mM (inactive)
22,CCCN1CCC(N2CCC(O)CC2)CC1,> 4 mM (inactive)
23,NCC1CN(Cc2ccccc2)CCO1 (centres undefined),> 4 mM (inactive)
24,Cc1cc(O)c(C)c(O)c1C(=O)O,> 4 mM (inactive)

row,SMILES,Kd
1,Oc1ccc(-c2n[nH]c(=S)n2Cc2ccco2)cc1,> 4 mM (inactive)
2,O=C(O)Cn1nnn(-c2ccccc2)c1=S,> 4 mM (inactive)
3,O=C1CSC(=Nc2cc(Cl)ccc2Cl)N1,> 4 mM (inactive)
4,CC(C)(C)NC(=O)CN1C(=O)c2ccccc2S1(=O)=O,> 4 mM (inactive)
5,Nc1nc2ccc(C(=O)O)cc2s1,> 4 mM (inactive)
6,CN(C)C(=S)Nc1nc2ccccc2s1,> 4 mM (inactive)
7,CC(=O)OC[C@@]1(O)C[C@@]23CCC4c5ccoc5CC[C@]4(C)C2CC[C@@H]1C3 (some centres undefined),> 4 mM (inactive)
8,CC(=O)c1ccc(Cc2cnc(N)s2)cc1,> 4 mM (inactive)
9,S=C(c1cccnc1)N1CCOCC1,> 4 mM (inactive)
10,CC1(C)C(=O)C=C[C@@]2(C)C1C=C[C@]1(C)C2CC[C@@]2(C)[C@H](c3ccoc3)OC(=O)C3OC321 (some centres undefined),> 4 mM (inactive)
11,Cc1ccc(S(=O)(=O)/N=C2\NC(=O)CS2)cc1,> 4 mM (inactive)
12,COc1cc(N)ccc1NC(=O)c1cccs1,> 4 mM (inactive)
13,Cc1cc(N)n(C2CCOC(C)(C)C2)n1 (centres undefined),> 4 mM (inactive)
14,OCc1nc2ccccc2s1,> 4 mM (inactive)
15,O=c1cc(-c2ccc(O)cc2)[nH]c(=S)[nH]1,> 4 mM (inactive)
16,Cc1ccc(-n2[nH]c(C)cc2=O)cc1,> 4 mM (inactive)
17,Cc1nc2ccccc2c(=O)n1CCCn1ccnc1,> 4 mM (inactive)
18,O=C(c1ccccc1)c1ccc(N2CCNCC2)cc1,> 4 mM (inactive)
19,Cc1occc1C(=O)Nc1nnc(-c2ccncc2)s1,> 4 mM (inactive)
20,Nc1ccc(N2CCOCC2)c(Cl)c1,> 4 mM (inactive)
21,OCC1CCN(Cc2ccccc2)CC1,> 4 mM (inactive)
22,Cc1nnc(SCC(=O)NCc2ccccc2)[nH]c1=O,> 4 mM (inactive)
23,NC(=O)CN1CC(c2ccccc2)CC1=O (centres undefined),> 4 mM (inactive)
24,Nc1ncnc2c1ncn2C1O[C@H](COP(=O)(O)O)[C@@H](O)[C@H]1O (some centres undefined),> 4 mM (inactive)

row,SMILES,Kd
1,O=c1[nH]cc(COCc2ccccc2)c(=O)[nH]1,> 4 mM (inactive)
2,Cc1cc(C)n(-c2cccc3cccnc23)n1,> 4 mM (inactive)
3,CN(C(=O)c1cc2cccnc2n(C)c1=O)c1ccccc1,> 4 mM (inactive)
4,NCc1ccc(-c2cccs2)cc1,> 4 mM (inactive)
5,C=C1C([C@]2(C)C(CC(=O)OC)[C@@](C)(COC(C)=O)OC(=O)C[C@@H]2OC(C)=O)[C@@H](OC=O)[C@H](OC(=O)C(OC(C)=O)C(C)CC)[C@@]2(C)[C@H](c3ccoc3)CC(=O)C12O (some centres undefined),> 4 mM (inactive)
6,CC(=O)NC(=S)Nc1ccc(S(N)(=O)=O)cc1,> 4 mM (inactive)
7,CC(=O)c1sc(NC(=O)C=C(C)C)nc1C,> 4 mM (inactive)
8,NCc1ccc2c(c1)OCCCO2,> 4 mM (inactive)
9,CC(=O)Nc1cccs1,> 4 mM (inactive)
10,NC(=O)CC(=O)NC12CC3CC(CC(C3)C1)C2,> 4 mM (inactive)
11,Cc1cc(C(F)(F)F)nn1CC(N)=O,> 4 mM (inactive)
12,Cc1noc(C)c1C(=O)NCc1ccco1,> 4 mM (inactive)
13,[O-][n+]1onc2c1CCc1c-2nc(-c2ccccc2)n1O,> 4 mM (inactive)
14,NC(=O)CC1Sc2ccccc2NC1=O (centres undefined),> 4 mM (inactive)
15,COc1cc(-c2coc3cc(O[C@@H]4O[C@H](CO)[C@@H](O)[C@H](O)[C@H]4O)c(OC)c(O)c3c2=O)cc(O)c1OC,> 4 mM (inactive)
16,O=C(CCc1n[nH]c(=O)[nH]c1=O)NCc1ccccc1,> 4 mM (inactive)
17,O=c1[nH]c(CN2CCN(CCO)CC2)nc2ccccc12,> 4 mM (inactive)
18,Nc1nc2ccccc2n1CCN1CCCC1,> 4 mM (inactive)
19,Cc1n[nH]c(C)c1CC(=O)O,> 4 mM (inactive)
20,Cc1ccc(-c2nc(N)n(C(=O)c3cccnc3)n2)cc1,> 4 mM (inactive)
21,COc1cc([C@H]2Oc3cc([C@H]4Oc5cc(O)cc(O)c5C(=O)[C@@H]4O)ccc3O[C@@H]2CO)ccc1O,> 4 mM (inactive)
22,CC(C)=CC(=O)Nc1ccc(S(N)(=O)=O)cc1,> 4 mM (inactive)
23,Cc1n[nH]c(C)c1NC(=O)c1cccc(F)c1,> 4 mM (inactive)
